Experimental data: ChEMBL document CHEMBL1138342, “Dual inhibitors of inosine monophosphate dehydrogenase and histone deacetylases for cancer treatment” (J Med Chem, 2007)
pIC50, pKi: −log10 of the molar value. Calls of active or inactive are those of the source. The calls are words filed in the database; no cut-off is given here.

What was measured:
[1] = target: Inosine-5'-monophosphate dehydrogenase 1 (Homo sapiens, UniProt P20839); assay: Inhibition of human IMPDH 1
[2] = target: Inosine-5'-monophosphate dehydrogenase 2 (Homo sapiens, UniProt P12268); assay: Inhibition of human IMPDH 2
Histone deacetylase = assay type: protein assay, Homo sapiens
K562 [3] = assay: cells; assay type: functional, cell-based; conditions: Homo sapiens, K562, 72 h
K562 [4] = assay: Differentiation of K562 cells at 0.25 uM after 5 days by […]; assay type: functional, Homo sapiens
K562 [5] = assay: Differentiation of K562 cells at 0.50 uM after 5 days by […]; assay type: functional, Homo sapiens
K562 [6] = assay: Differentiation of K562 cells at 0.005 uM after 5 days by […]; assay type: functional, Homo sapiens

Activity [1]	Activity [2]	IC50 (Histone deacetylase) [µM]	pIC50 (K562 [3])	pKi [1]	pKi [2]	SMILES	Activity (K562 [4]) [%]	Activity (K562 [5]) [%]	Activity (K562 [6]) [%]
inactive	inactive	14	4.37	–	–	COc1c(C)c2c(c(OC)c1C/C=C(\C)CCC(=O)NO)C(=O)OC2	–	–	–
–	–	5	5.32	7.15	7.52	COc1c(C)c2c(c(O)c1C/C=C(\C)CCC(=O)NO)C(=O)OC2 [MYCOPHENOLIC HYDROXAMIC ACID]	75	–	–
inactive	inactive	–	–	–	–	O=C(CCCCCCC(=O)Nc1ccccc1)NO [VORINOSTAT]	–	47.4	–
–	–	10.4	4.97	6.40	5.96	COc1c(C)c2c(c(O)c1C/C=C(\C)CCCC(=O)NO)C(=O)OC2	–	–	–
–	–	–	–	–	–	COc1c(C)c2c(c(O)c1C/C=C(\C)CCC(=O)O)C(=O)OC2 [MYCOPHENOLIC ACID]	46.4	–	–
–	–	> 100	4.22	5.55	6.19	COc1c(C)c2c(c(O)c1C/C=C(\C)CCC(=O)Nc1ccccc1N)C(=O)OC2	–	–	–
–	–	20.1	4.35	5.68	6.27	COc1c(C)c2c(c(O)c1CCC(C)CCC(=O)NO)C(=O)OC2 (stereo not given)	–	–	–
–	–	0.06	6.54	5.30	5.77	COc1cc(NC(=O)CCCCCCC(=O)NO)ccc1-c1cnco1	–	–	87.8
